{
  "source": "patent US20030017518A1",
  "about": "“Non-radio-active assay of LPS kinases” (priority 2001, published 2003)",
  "molecules": {"B1": {"name": "WaaPHisC: recombinant P. aeruginosa WaaP with C-terminal 6×His tag, heptose/tyrosine kinase (protein, UniProt Q9HUF7 1-268, looked up)", "Lipopolysaccharide core …": "MRLVLEEPFKRLWNGRDPFEAVEALQGKVYRELEGRRTLRTEVDGRGYFVKIHRGIGWGEIAKNLLTAKLPVLGARQEWQAIRRLHEAGVATMTAVAYGERGSDPARQHSFIVTEELAPTVDLEVFSQDWRERPPPPRLKRALVEAVARMVGDMHRAGVNHRDCYICHFLLHTDKPVSADDFRLSVIDLHRAQTRDATPKRWRNKDLAALYFSALDIGLTRRDKLRFLRTYFRRPLREILRDEAGLLAWMERKAEKLYERKQRYGDLL", "modifications": "C-terminal 6xHis tag", "notes": "recombinant P. aeruginosa WaaP with C-terminal 6×His tag, heptose/tyrosine kinase"}},
  "key": {"[1]": {"molecular_target": "T1, WaaP from E. coli (WaaPEc) (Escherichia coli, UniProt Q9R9D6)", "T1 construct": "His-tag (N)", "details": "cited from earlier work"}, "[2]": {"tested_on": "E. coli F470 (waaP−)/waaPPa(K69R)", "assay": "MIC of novobiocin and SDS, in vivo complementation assay", "type": "cell-based", "source_text": "(§1) Site-directed mutagenesis and in vivo complementation assay—waaP was amplified by polymerase chain reaction (PCR) from pCOREc1 (de Kievit and Lam, 1997) with the flanking up- and down-stream primers ^5′[…]^3′ (SEQ ID NO: 3) and ^5′[…]^3′ (SEQ ID NO: 4) containing Baam HI and Hind III respectively. The PCR product was cloned into the complementation vector pUCP26 (West, 1994) as a positive control for complementation assay. Mutations of waaP were introduced by the method of “overlapping extension” as described by Horton (Horton, 1993) using PCR with the flanking primers as well as the primers shown below. K69A mutation was introduced with the primer (only up-strand was described here) ^5′[…]^3′ (SEQ ID NO: 5); K69R with ^5′[…]^3′ (SEQ ID NO: 6); D163A with ^5′[…]^3′ (SEQ ID NO: 7); and D163E with ^5′[…]^3′ (SEQ ID NO: 8). Underlined nucleotides indicated the mutations. The PCR products were then cloned into pUCP26 at Bam HI and Hind III sites respectively, and transformed into E. coli F470 7waaP- (Yethon 1998). Constructs of the mutations of waaP were sequenced to confirm the mutation. In vivo complementation was tested for the minimum inhibition concentration (MIC) of SDS and novobiocin, respectively according to Walsh, et al. 2000. E. coli F470 7waaP- was used as the negative control.\n(§2) To validate the accuracy of the alignment comparisons in FIG. 2, site-directed mutagenesis of waaPPa was performed targeting on K^69 and […], respectively. The effect of the site-directed mutation was evaluated by their ability to complement waaP-Ec. It is noteworthy that the complementation assay was performed using waaP-Ec since waaP mutation is lethal to P. aeruginosa. In Table I, the complementation of waaP-Ec by wild type waaPPa increased the MICs of waaP-Ec by 3 and 30 times to novobiocin and SDS, respectively. However, the MICs of all the mutants were at the same level as that of waaP-Ec."}, "E. coli F470 (waaP−)": {"tested_on": "E. coli F470 (waaP−)", "assay": "MIC of novobiocin and SDS, in vivo complementation assay", "type": "cell-based", "source_text": "as §1, §2"}, "[3]": {"tested_on": "E. coli F470 (waaP−)/waaPPa", "assay": "MIC of novobiocin and SDS, in vivo complementation assay", "type": "cell-based", "details": "for increase of the MIC of waaP-Ec by complementation with wild type waaPPa: versus E. coli F470 waaP− mutant", "source_text": "as §1, §2"}, "[4]": {"tested_on": "E. coli F470 (waaP−)/waaPPa(K69A)", "assay": "MIC of novobiocin and SDS, in vivo complementation assay", "type": "cell-based", "source_text": "as §1, §2"}, "[5]": {"tested_on": "E. coli F470 (waaP−)/waaPPa(D163E)", "assay": "MIC of novobiocin and SDS, in vivo complementation assay", "type": "cell-based", "source_text": "as §1, §2"}, "[6]": {"tested_on": "E. coli F470 (waaP−)/waaPPa(D163A)", "assay": "MIC of novobiocin and SDS, in vivo complementation assay", "type": "cell-based", "source_text": "as §1, §2"}, "F470 (wild type)": {"tested_on": "F470 (wild type)", "assay": "MIC of novobiocin and SDS, in vivo complementation assay", "type": "cell-based, E. coli", "source_text": "Site-directed mutagenesis and in vivo complementation assay—waaP was amplified by polymerase chain reaction (PCR) from pCOREc1 (de Kievit and Lam, 1997) with the flanking up- and down-stream primers ^5′[…]^3′ (SEQ ID NO: 3) and ^5′[…]^3′ (SEQ ID NO: 4) containing Baam HI and Hind III respectively. The PCR product was cloned into the complementation vector pUCP26 (West, 1994) as a positive control for complementation assay. Mutations of waaP were introduced by the method of “overlapping extension” as described by Horton (Horton, 1993) using PCR with the flanking primers as well as the primers shown below. K69A mutation was introduced with the primer (only up-strand was described here) ^5′[…]^3′ (SEQ ID NO: 5); K69R with ^5′[…]^3′ (SEQ ID NO: 6); D163A with ^5′[…]^3′ (SEQ ID NO: 7); and D163E with ^5′[…]^3′ (SEQ ID NO: 8). Underlined nucleotides indicated the mutations. The PCR products were then cloned into pUCP26 at Bam HI and Hind III sites respectively, and transformed into E. coli F470 7waaP- (Yethon 1998). Constructs of the mutations of waaP were sequenced to confirm the mutation. […]\nTo validate the accuracy of the alignment comparisons in FIG. 2, site-directed mutagenesis of waaPPa was performed targeting on K^69 and […], respectively. The effect of the site-directed mutation was evaluated by their ability to complement waaP-Ec. […]"}, "WaaPHisC": {"molecular_target": "T2, WaaPHisC (Pseudomonas aeruginosa, UniProt Q9HUF7)", "T2 construct": "made in house; host or cells: E. coli BL21(DE3)pLysS, vector pET30a(+)", "type": "biochemical, P. aeruginosa", "experimental": "Antigen coating was accomplished by adding 50 μl LPS or enzyme reaction mixture to each well and then mixing with equal amount of chloroform-ethanol ([…]/EtOH) (1:10, v/v)). The plate was incubated at room temperature in the fume hood (flow rate at 150 ft·min^−1) overnight to allow the evaporation of the solvent. The ELISA was performed according to Bantroch et al. (1994) (Bantroch, 1994) with the following modifications. […] For the colorimetric method (Bantroch, 1994), the ELISA was developed at 37° C. for 2 h and the optical density at 405 nm was determined on a microplate reader (Flow Laboratories, Mississauga, ON). For the chemiluminescence development, 100 μl of the chemiluminescence substrate CDP-Star® Ready-to-Use with Emerald-II™ (CDP*) (Applied Biosystems, Bedford, Mass.) with 1:5 (v/v) diluted in diethanolamine buffer (9.6% (v/v) and 0.01% (w/v) MgCl2, pH 9.8) was added to each well. After incubation at room temperature for 20 min, the response of chemiluminescence was measured on a 1420-VICTOR^2 Multilabel Counter (Wallac, Montreal, QC) using chemiluminescence program.\nThe reaction mixture was incubated at 37° C. for 30 min (15 min for kinetics experiments) and quenched by the addition of 50 μl chloroform/ethanol (1:10) solution. The plate was then left at room temperature in the fume hood overnight and subjected to ELISA the next morning. PAO1-LPS was used as the standard to quantify phosphorylated LPS.\nTherefore, the reactions on the kinetics studies measured the phosphorylation within the initial 15 min."}},
  "data": [
    {"molecule": "Nc1ncnc2c1ncn2[C@@H]1O[C@H](COP(=O)(O)OP(=O)(O)OP(=O)(O)O)[C@@H](O)[C@H]1O", "note": "[ATP, adenosine triphosphate]", "values": [
      {"measurement": "Km", "setting": "[1]", "value": 130, "unit": "µM"}
    ]},
    {"molecule": "CO[C@@H]1[C@@H](OC(N)=O)[C@@H](O)[C@H](Oc2ccc3c(O)c(NC(=O)c4ccc(O)c(CC=C(C)C)c4)c(=O)oc3c2C)OC1(C)C", "note": "[Novobiocin, novobiocin]", "values": [
      {"measurement": "MIC", "setting": "[2]; Escherichia coli", "value": 50, "unit": "µg/mL"},
      {"measurement": "MIC", "setting": "E. coli F470 (waaP−); Escherichia coli", "value": 50, "unit": "µg/mL"},
      {"measurement": "MIC", "setting": "[3]; Escherichia coli", "value": 150, "unit": "µg/mL"},
      {"measurement": "increase of the MIC of waaP-Ec by complementation with wild type waaPPa", "setting": "[3]", "value": 3, "unit": "times"},
      {"measurement": "MIC", "setting": "[4]; Escherichia coli", "value": 50, "unit": "µg/mL"},
      {"measurement": "MIC", "setting": "[5]; Escherichia coli", "value": 50, "unit": "µg/mL"},
      {"measurement": "MIC", "setting": "[6]; Escherichia coli", "value": 25, "unit": "µg/mL"},
      {"measurement": "MIC", "setting": "F470 (wild type); Escherichia coli", "value": "> 200", "unit": "µg/mL"}
    ]},
    {"molecule": "CCCCCCCCCCCCOS(=O)(=O)[O-].[Na+]", "note": "[SDS]", "values": [
      {"measurement": "MIC", "setting": "[2]; strain E. coli F470 (waaP−)/waaPPa(K69R)", "value": 400, "unit": "µg/mL"},
      {"measurement": "MIC", "setting": "E. coli F470 (waaP−); strain E. coli F470 (waaP−)", "value": 400, "unit": "µg/mL"},
      {"measurement": "MIC", "setting": "[3]; strain E. coli F470 (waaP−) complemented with wild type waaPPa", "value": "12,500 μg.ml^−1"},
      {"measurement": "increase of the MIC of waaP-Ec by complementation with wild type waaPPa", "setting": "[3]", "value": 30, "unit": "times"},
      {"measurement": "MIC", "setting": "[4]; strain E. coli F470 (waaP−)/waaPPa(K69A)", "value": 400, "unit": "µg/mL"},
      {"measurement": "MIC", "setting": "[5]; strain E. coli F470 (waaP−)/waaPPa(D163E)", "value": 200, "unit": "µg/mL"},
      {"measurement": "MIC", "setting": "[6]; strain E. coli F470 (waaP−)/waaPPa(D163A)", "value": 400, "unit": "µg/mL"},
      {"measurement": "MIC", "setting": "F470 (wild type); strain F470 (wild type)", "value": ">50,000 μg.ml^−1"}
    ]},
    {"molecule": "B1", "values": [
      {"measurement": "Vmax", "setting": "WaaPHisC; phosphorylation of HF-LPS", "value": 408.24, "unit": "pmol/min"},
      {"measurement": "kcat", "setting": "WaaPHisC; phosphorylation of HF-LPS", "value": 0.4538, "unit": "s⁻¹"},
      {"measurement": "enzyme activity remained after storage", "setting": "WaaPHisC; storage at −20° C. for 7 days", "value": "about 70%"}
    ]}
  ]
}
